These results are taken from publication PMC9322314 (2022).

The subject of experiment [1] is FdxT (DNA, hairpin, hexaethyleneglycol (HEG) loop between 9 and 10) TATAGCTATATAGCTATA
Kind of experiment: FRET melting. As to conditions: 10 mM K+, 90 mM Li+; 10 mM Li cacodylate pH 7.2, 0.2 μM DNA, 2 μM compound.

Experiment [2] has as its system 22AG (DNA, G4) AGGGTTAGGGTTAGGGTTAGGG
Kind of experiment: CD titration, Hill fit. As to conditions: 10 mM Li cacodylate pH 7.2, 3 μM DNA.

Experiment [3] deals with Pu24T (32P-labelled) (DNA, G4) TGAGGGTGGTGAGGGTGGGGAAGG
Kind of experiment: photoalkylation (365 nm), denaturing PAGE. As to conditions: 100 mM K+; covalent; 10 mM Li cacodylate pH 7.2, 10 μM DNA, 20 μM compound.

The subject of experiment [4] is 22AG (32P-labelled) (DNA, G4) AGGGTTAGGGTTAGGGTTAGGG
As to the kind of experiment: photoalkylation (365 nm), denaturing PAGE. Conditions: 100 mM K+; covalent; 10 mM Li cacodylate pH 7.2, 10 μM DNA, 20 μM compound.

The test system of experiment [5] is F21T (DNA, G4) GGGTTAGGGTTAGGGTTAGGG
As to the kind of experiment: FRET melting. As to conditions: 10 mM K+, 90 mM Li+; 10 mM Li cacodylate pH 7.2, 0.2 μM DNA, 20 μM compound.

The subject of experiment [6] is F(CEB25wt)T (DNA, G4) AAGGGTGGGTGTAAGTGTGGGTGGGT
As to the kind of experiment: FRET melting. As to conditions: 1 mM K+, 99 mM Li+; 10 mM Li cacodylate pH 7.2, 0.2 μM DNA, 2 μM compound.

Experiment [7] relates to F(c-Kit2)T (DNA, G4) GGGCGGGCGCGAGGGAGGGG
As to the kind of experiment: FRET melting. As to conditions: 1 mM K+, 99 mM Li+; 10 mM Li cacodylate pH 7.2, 0.2 μM DNA, 2 μM compound.

For experiment [8], the system named is F(c-Myc)T (DNA, G4) TTGAGGGTGGGTAGGGTGGGTAA
Kind of experiment: FRET melting. Conditions: 1 mM K+, 99 mM Li+; 10 mM Li cacodylate pH 7.2, 0.2 μM DNA, 2 μM compound.

Experiment [9] concerns F(21CTA)T (DNA, G4) GGGCTAGGGCTAGGGCTAGGG
Kind of experiment: FRET melting. As to conditions: 10 mM K+, 90 mM Li+; 10 mM Li cacodylate pH 7.2, 0.2 μM DNA, 2 μM compound.

Experiment [10] concerns F(Pu24T)T (DNA, G4) TGAGGGTGGTGAGGGTGGGGAAGG
Kind of experiment: FRET melting. As to conditions: 1 mM K+, 99 mM Li+; 10 mM Li cacodylate pH 7.2, 0.2 μM DNA, 20 μM compound.

`CN(C)Cc1cc(C#Cc2cccc(C#Cc3ccc(O)c(CN(C)C)c3)c2)ccc1O`: the binding entry is listed as “no” in experiment [1]; “yes” in experiment [2] (100 mM K+); “yes” in experiment [2] (100 mM Na+); “yes” in [3]; “yes” in [4].
`CN(C)Cc1cc2cc(C#Cc3cccc(C#Cc4ccc5cc(O)c(CN(C)C)cc5c4)c3)ccc2cc1O`: the figures for the binding result in experiment [1] and in experiment [2] (100 mM K+) were “no” and “yes”, respectively.
As for `CN(C)Cc1ccc(C#Cc2cccc(C#Cc3ccc(CN(C)C)c(O)c3)c2)cc1O`, the binding result in experiment [1] is listed as “no”; in [2] (100 mM K+), “yes”; in [2] (100 mM Na+), “yes”.
As for `C[N+](C)(C)Cc1cc(C#Cc2cccc(C#Cc3ccc(O)c(C[N+](C)(C)C)c3)c2)ccc1O`, the binding entry in experiment [1] is “no”; in [2] (100 mM K+), “yes”; in [2] (100 mM Na+), “yes”; in [3], “yes”; in [4], “yes”.
Regarding `C[N+](C)(C)Cc1cc2cc(C#Cc3cccc(C#Cc4ccc5cc(O)c(C[N+](C)(C)C)cc5c4)c3)ccc2cc1O`, the “ΔT 1/2” value in experiment [5] was determined as 33.3 °C; in experiment [10] it was 29.0 °C. The binding entry in experiment [6] was “weak”; in experiment [7], “weak”; in experiment [1], “no”; in experiment [2] (100 mM K+), “yes”; in experiment [2] (100 mM Na+), “yes”; in experiment [8], “yes”. Besides, the binding entry in [9] was “weak”.
Take `C[N+](C)(C)Cc1ccc(C#Cc2cccc(C#Cc3ccc(C[N+](C)(C)C)c(O)c3)c2)cc1O`: the binding result in [1] is recorded as “no”; in experiment [2] (100 mM K+) it was “yes”; in experiment [2] (100 mM Na+), “yes”; in experiment [3], “yes”; in experiment [4], “yes”.
